Measured values from patent US7563864B2, “Prolyl endopeptidase mediated destruction of T cell epitopes in whole gluten” (Celiac Sprue Research Foundation, priority 2004, dated 2009).

What was measured:
[1] = Chymotrypsin activity assay; type: biochemical; conditions: standard chromogenic assay; pH 7.8, 25° C.
Method: Chymotrypsin: 750 μL 80 mM Tris-HCl, 100 mM CaCl2, pH 7.8 and 700 μL 1.07 mM BTEE (in Water/MeOH 1:1) were mixed and incubated at room temperature for 10′. 5 μL Chymotrypsin (1 mg/ml) were added and the absorption at 256 nm was recorded for 2′, every 10″. One unit hydrolyzes 1 μmol of BTEE per min at pH 7.8 and 25° C. Extinction coefficient 0.964 cm^2/μmol at 256 nm. 1 BTEE unit=29.55 USP units.

Elastase activity assay = type: biochemical; conditions: standard chromogenic assay; pH 8.0, 25° C.
Method: Elastase: 935 μL 0.1 M Tris (pH 8.0) and 65 μL of Succinyl-Ala3-p-Nitro anilide (4.4 mM in 0.1 M Tris, pH 8.0) were mixed and incubated at room temperature for 10′. 5 μL Elastase (0.2 mg/ml) were added and the absorption at 410 nm was recorded for 2′, every 10″. One unit hydrolyzes 1 μmol of Succinyl-Ala3-p-Nitro anilide per min at pH 8.0 and 25° C. Extinction coefficient 8.8 cm^2/μmol at 410 nm. […].

[2] = system: denatured hemoglobin substrate; assay: Pepsin activity assay; type: biochemical; conditions: standard chromogenic assay; 37° C.
Method: Activity assays—Pepsin: 300 μL 2.5% Hemoglobin and 75 μL 0.3 M HCl were mixed and incubated for 10′ at 37° C., then added to 75 μL pepsin solution (0.1 mg/ml in 0.01 M HCl, pH=2.0). The samples were incubated for 0′, 10′ and 20′ at 37° C. (3 samples), and the reaction was stopped by addition of 750 μL 5% Trichloroacetic acid (TCA), and incubated 5′ at 37° C. For the 0′ samples, the TCA was added before the hemoglobin. Samples were centrifuged for 10′ at 13400×g. The absorption was recorded at 280 nm. One unit renders TCA soluble absorption of 0.001 at 280 nm per min at 37° C. from a denatured hemoglobin substrate.

[3] = system: intestinal T cell line 446.1.3; assay: T cell proliferation assay, polyclonal T cell line 446.1.3; type: cell-based, human; conditions: DQ2+ APC, 5 μM TG2-treated peptide, 3H thymidine incorporation
Source text: (§1) T cell assays—The generation of polyclonal gluten-specific T cell lines derived from ex vivo gluten challenged small intestinal biopsy specimens of adult Celiac Sprue patients have been described elsewhere. For this study 14 different intestinal T cell lines derived from 13 DQ2+celiac patients were selected based on two basic criteria; effective recognition of TG2-treated digests of gluten and significant responses to at least two different gluten epitopes (Table 2). The generation of intestinal T cell clones and the epitope specificity of these clones, except TCC 387.3, has been described elsewhere (10). The TCC 387.3 recognizes a TG2-dependent epitope, defined as γ-VI that is contained within residues 62-72 (PQQPFPQQPQQ) of recombinant γ-5 gliadin. The freeze-dried, proteolyzed gluten samples were dissolved in PBS with 2 mM CaCl2 and treated with 150 μg/ml human recombinant TG2 (14) or, in some experiments 200 μg/ml guinea pig transglutaminase (Sigma T-5398), for 2 hours at 37° C. The TG2-treated samples were incubated overnight in triplicates on U-bottomed 96 well plates with 75 000 cells per well of DQ2 homozygous, irradiated (75 Gy) EBV-transformed B-lymphoblastoid cell lines in a volume of 100 μl 15% pooled, inactivated human serum and RPMI1640. After the incubation 50 μl of freshly thawed T cells (1×10^6 cells/ml) were added to each well. The proliferation in the wells was evaluated by ^3H thymidine incorporation from 48-72 hours after the addition of the T cells.

[4] = system: intestinal T cell line 496.1.2; assay: T cell proliferation assay, polyclonal T cell line 496.1.2; type: cell-based, human; parameters: key: −: no response; Stimulatory index (SI; T + APC + TG2-treated peptide divided by T + APC) of 3-10; ++: SI above 10; conditions: DQ2+ APC, 5 μM TG2-treated peptide, 3H thymidine incorporation
Source text: as §1

[5] = system: intestinal T cell line 437.1.1; assay: T cell proliferation assay, polyclonal T cell line 437.1.1; type: cell-based, human; parameters: key: −: no response; Stimulatory index (SI; T + APC + TG2-treated peptide divided by T + APC) of 3-10; ++: SI above 10; conditions: DQ2+ APC, 5 μM TG2-treated peptide, 3H thymidine incorporation
Source text: as §1

[6] = system: intestinal T cell line 491.1.3; assay: T cell proliferation assay, polyclonal T cell line 491.1.3; type: cell-based, human; conditions: DQ2+ APC, 5 μM TG2-treated peptide, 3H thymidine incorporation
Source text: as §1

[7] = system: intestinal T cell line 451.1.1; assay: T cell proliferation assay, polyclonal T cell line 451.1.1; type: cell-based, human; parameters: key: −: no response; Stimulatory index (SI; T + APC + TG2-treated peptide divided by T + APC) of 3-10; ++: SI above 10; conditions: DQ2+ APC, 5 μM TG2-treated peptide, 3H thymidine incorporation
Source text: as §1

[8] = system: intestinal T cell line 461.1.4; assay: T cell proliferation assay, polyclonal T cell line 461.1.4; type: cell-based, human; parameters: key: −: no response; Stimulatory index (SI; T + APC + TG2-treated peptide divided by T + APC) of 3-10; ++: SI above 10; conditions: DQ2+ APC, 5 μM TG2-treated peptide, 3H thymidine incorporation
Source text: as §1

[9] = system: intestinal T cell line 494.1.1; assay: T cell proliferation assay, polyclonal T cell line 494.1.1; type: cell-based, human; parameters: key: −: no response; Stimulatory index (SI; T + APC + TG2-treated peptide divided by T + APC) of 3-10; ++: SI above 10; conditions: DQ2+ APC, 5 μM TG2-treated peptide, 3H thymidine incorporation
Source text: as §1

[10] = system: intestinal T cell line 437.1.3; assay: T cell proliferation assay, polyclonal T cell line 437.1.3; type: cell-based, human; parameters: key: −: no response; Stimulatory index (SI; T + APC + TG2-treated peptide divided by T + APC) of 3-10; ++: SI above 10; conditions: DQ2+ APC, 5 μM TG2-treated peptide, 3H thymidine incorporation
Source text: as §1

[11] = system: intestinal T cell line 502.1.2; assay: T cell proliferation assay, polyclonal T cell line 502.1.2; type: cell-based, human; parameters: key: −: no response; Stimulatory index (SI; T + APC + TG2-treated peptide divided by T + APC) of 3-10; ++: SI above 10; conditions: DQ2+ APC, 5 μM TG2-treated peptide, 3H thymidine incorporation
Source text: as §1

[12] = system: intestinal T cell line 432.2.1; assay: T cell proliferation assay, polyclonal T cell line 432.2.1; type: cell-based, human; parameters: key: −: no response; Stimulatory index (SI; T + APC + TG2-treated peptide divided by T + APC) of 3-10; ++: SI above 10; conditions: DQ2+ APC, 5 μM TG2-treated peptide, 3H thymidine incorporation
Source text: as §1

[13] = system: intestinal T cell line 488.3.1; assay: T cell proliferation assay, polyclonal T cell line 488.3.1; type: cell-based, human; parameters: key: −: no response; Stimulatory index (SI; T + APC + TG2-treated peptide divided by T + APC) of 3-10; ++: SI above 10; conditions: DQ2+ APC, 5 μM TG2-treated peptide, 3H thymidine incorporation
Source text: as §1

[14] = system: intestinal T cell line 421.1.4; assay: T cell proliferation assay, polyclonal T cell line 421.1.4; type: cell-based, human; parameters: key: −: no response; Stimulatory index (SI; T + APC + TG2-treated peptide divided by T + APC) of 3-10; ++: SI above 10; conditions: DQ2+ APC, 5 μM TG2-treated peptide, 3H thymidine incorporation
Source text: as §1

[15] = system: intestinal T cell line 422.4.2; assay: T cell proliferation assay, polyclonal T cell line 422.4.2; type: cell-based, human; parameters: key: −: no response; Stimulatory index (SI; T + APC + TG2-treated peptide divided by T + APC) of 3-10; ++: SI above 10; conditions: DQ2+ APC, 5 μM TG2-treated peptide, 3H thymidine incorporation
Source text: as §1

[16] = system: intestinal T cell line 482.1.4; assay: T cell proliferation assay, polyclonal T cell line 482.1.4; type: cell-based, human; parameters: key: −: no response; Stimulatory index (SI; T + APC + TG2-treated peptide divided by T + APC) of 3-10; ++: SI above 10; conditions: DQ2+ APC, 5 μM TG2-treated peptide, 3H thymidine incorporation
Source text: as §1

Trypsin activity assay = type: biochemical; conditions: standard chromogenic assay; pH 8.2, 25° C.
Method: Trypsin: 870 μL 46 mM Tris-HCl, 11.5 mM CaCl2, pH 8.1 and 100 μL 10 mM N-α-p-Tosyl-L-Arginine methyl ester (TAME) were mixed and incubated at room temperature for 10′. 5 μL Trypsin (1 mg/ml) were added and the absorption at 247 nm was recorded for 2′, every 10″. Unit definition: One unit hydrolyzes 1 μmol of TAME per min at pH 8.2 and 25° C. Extinction coefficient 0.18 cm^2/μmol at 247 nm. 1 TAME unit=19.2 USP units.

Chymotrypsin showed a specific activity [1] of 800 USP/mg.

Substance Elastase has a specific activity (Elastase activity assay) of 5 U/mg.

Pepsin gave a specific activity [2] of 4000 U/mg.

For QQxSQPQxPQQQQxPQQPQQF [Glu-5], the “Response to TG2-treated gluten peptides (stimulatory index)” value (“Response … (stimulatory index)” below) [3] was “+ (Stimulatory index (SI; T + APC + TG2-treated peptide divided by T + APC) of 3-10)”, the “Response … (stimulatory index)” value [4] was “−” and the “Response … (stimulatory index)” value [5] was “−”. For the same substance, the “Response … (stimulatory index)” value [6] was “+ (Stimulatory index (SI; T + APC + TG2-treated peptide divided by T + APC) of 3-10)”, the “Response … (stimulatory index)” value [7] was “−” and the “Response … (stimulatory index)” value [8] was “−”. The “Response … (stimulatory index)” value [9] was “−”, the “Response … (stimulatory index)” value [10] was “−” and the “Response … (stimulatory index)” value [11] was “−”. For the same substance, the “Response … (stimulatory index)” value [12] was “−”, the “Response … (stimulatory index)” value [13] was “−” and the “Response … (stimulatory index)” value [14] was “−”. For the same substance, the “Response … (stimulatory index)” value [15] was “−” and the “Response … (stimulatory index)” value [16] was “−”.

Trypsin showed a specific activity (Trypsin activity assay) of 2000 USP/mg.
